According to EP1379634B1 (THE UNIVERSITY OF GEORGIA RESEARCH FOUNDATION, INC., priority 2001, dated 2002):
Residues, ends and D or L forms follow the SMILES beside them. *: point of attachment. AFC = O=c1cc(C(F)(F)F)c2ccc(N*)cc2o1; Cbz = O=C(OCc1ccccc1)*; CH2F = FC*

Columns and labels:
BALB/c mice = experiment: Observation of side effects in treated mice; type: in vivo
Cathepsin L = Cathepsin L (Homo sapiens, UniProt P07711); experiment: Selectivity test (Steps VI and IX), Cathepsin L; type: biochemical; conditions: pH 5.5, substrate Z-FR-AFC
Description: (§1) In order to perform the assay, the vehicle (for Step VI) or inhibitor (for Step IX) were incubated with the appropriate substrate in the correct assay buffer and allowed to equilibrate. Subsequently, the protease was added, and the assay was allowed to incubate for an appropriate time. The concentrations used in this experiment were as follows: Vehicle was set up at 4 X 10^-5 M in final assay buffer; Inhibitor was set up at 3 X 10^-10 M in the final assay buffer. Preferably the dosages employed should be the minimal amount of vehicle or inhibitor necessary to induce inhibition. […] Substrates were set up based upon the preferred substrate for cleavage of the particular enzyme.
(§2) Positive controls were set up similarly as described for test controls, except that a solvent blank was added in substitution for the inhibitor or vehicle (in a volume equal to the volume of inhibitor or vehicle addition). All of the inhibitors and vehicles could be dissolved in dimethylsulfoxide (DMSO), and therefore, this was the solvent of choice. Negative controls were set up by adding the inhibitor or vehicle and the preferred substrates in a tube without the protease. All potential non-proteolytic liberation of AFC was therefore controlled for in this tube.
(§3) All controls were set up in triplicate, and experiments were repeated a minimum of five times.
(§4) Percent inhibition was calculated as: %Inhibition = ((AFC positive for "SI"−AFC negative for "SI")−(AFC test−AFC negative for "SI"))/(AFC positive for "SI"−AFC negative for "SI") × 100 [formula]
(§5) In this preliminary test, we employed the following human-derived enzymes (with indicated mechanistic class in parentheses): Cathepsin B (cysteine), Cathepsin L (cysteine), Cathepsin H (cysteine), Cathepsin D (aspartic), Trypsin (serine), the purified Taenia solium cysteine protease, and the Taenia solium crude mix. Cathepsin B was prepared in an assay buffer of 10 mM L-cysteine in 0.4 M Citrate buffer, pH 6.1, using Z-ARR-AFC as the cleavage substrate. Cathepsin L was prepared in an assay buffer of 10 mM L-cysteine in 0.4 M Citrate buffer, pH 5.5, using Z-FR-AFC as the cleavage substrate. Cathepsin H was prepared in an assay buffer of 10 mM L-cysteine in 0.15 M PBS buffer, pH 6.8, using L-R-AFC as the cleavage substrate. Cathepsin D was prepared in an assay buffer of 0.15 M PBS, pH 7.1, using Z-RGFFP-AFC as the cleavage substrate. Trypsin was prepared in an assay buffer of 0.15 M PBS, pH 8.0, supplemented with 100 mM CaCl2 and with Z-R-AFC as the cleavage substrate. Enzyme was incubated so that it was at least 50 times less than the concentration of substrate in order to insure saturating conditions.

T. solium (cysteine) = experiment: Selectivity test (Steps VI and IX), T. solium cysteine protease; type: biochemical, Taenia solium
Description: as §1, §2, §3, §4, §5

[1] = system: purified Taenia solium cysteine protease; experiment: Competitor assay of low Vmax substrates (vehicles) against high Vmax substrate cocktails (Step III), purified protease; type: biochemical; conditions: for inhibition with the 1.4% cocktail: 1.4% cocktail (Z-FR-AFC 1X10^-6 M); for inhibition with the final cocktail (7.4%): 7.4% cocktail (five high Vmax substrates, 1X10^-6 M each); for Ki of vehicle: Dixon plot, data not shown
Description: The top 1.4% of substrates (out of 67) in the full panel of substrates with the highest Vmax values were chosen to compose a "TOP 1.4% cocktail". (We employed "Vmax" here although Kcat could also be used). Due to the lower number of substrates, a percentage was not chosen for the "BOTTOM %" substrates. Alternately, all substrates which were not cleaved as determined by a value of 10 uM/hr or less, were chosen to be tested in this step for competitive ability. Hereinafter the term "vehicle" will represent low Vmax substrates that were capable of inhibiting cleavage of the percent cocktails. In this instance, we tested for "vehicles" which inhibited cleavage of the TOP 1.4% cocktail (they were delivered into the active site). Based upon our results from Step II, the top 1.4% cocktail was composed of Z-Phe-Arg-AFC, the highest cleaved substrate.
The experiment began with a competitor test between the noncleaved low Vmax substrates and the highest Vmax substrate, Z-Phe-Arg-AFC. Concentrations were varied between the low Vmax substrate and Z-Phe-Arg-AFC, as described above under "refinement of assay" until a relative inhibition profile was obtained.
The mixture was allowed to equilibrate for a period of 30 minutes. Finally, active purified enzyme was added to the tubes at a concentration that was always 50 times less than the concentration of the high and low Vmax substrates, respectively, in order to insure saturation conditions. This concentration varied from purification to purification and the amount added depended upon the yield and specific activity of the purified protease.
Positive controls were set up in a manner similar to that described for test controls, except that solvent was added in substitution for the low Vmax substrate (in a volume equal to the low Vmax volume addition). All of the substrates could be dissolved in dimethylsulfoxide (DMSO), and therefore, this was the solvent of choice. Negative controls were set up by adding the low Vmax and the high Vmax substrate in a tube without the protease. All potential non-proteolytic induced liberation of AFC was therefore controlled for in this tube (a feature which also monitored stability of the AFC substrates, since these substrates will freely liberate AFC when unstable). A tube set was established for this negative control.
All controls were set up in triplicate, and experiments were repeated a minimum of five times. The assays were incubated at 37°C, for 18 hours overnight.
Percent inhibition was calculated as: %Inhibition = ((AFC positive for "Y"−AFC negative for "Y")−(AFC test−AFC negative for "Y"))/(AFC positive for "Y"−AFC negative for "Y") × 100 [formula]
A 2.9% cocktail of the high Vmax substrates was made. This was composed of Z-FR-AFC and the second most cleaved substrate, Z-FAR-AFC. The vehicles promoted from the initial screenings above were again tested for competitive inhibition ability with the new cocktails. Their concentrations were set identically to those which were "fixed" in the previous protocols. In other words, 8X10^-6 M of the vehicle was added to the culture tube with 1X10^-6 M of Z-FR-AFC and 1X10^-6 M of Z-FAR-AFC. Active protease was added last at a concentration that was 50 times less than the concentration of the high Vmax substrate (to ensure saturating conditions).
In similar experimental fashion, a 4.4%, 5.9%, and 7.4% cocktail were tested with each of the promising vehicles. Each increase in the percentage represented an increase by an additional high Vmax substrate. Each of the individual components in the cocktail were added at 1X10^-6 M each, to 8X10^-6 M of the vehicle. The composition of the cocktails was as follows: 4.4% cocktail: Z-FR-AFC, Z-FAR-AFC, and Z-AAK-AFC (third highest cleaved substrate); 5.9% cocktail: Z-FR-AFC, Z-FAR-AFC, Z-AAK-AFC, and AP-AFC (fourth highest cleaved substrate); 7.4% cocktail: […], Z-FAR-AFC, Z-AAK-AFC, AP-AFC, and Z-VLR-AFC. […]

Chain of Cathepsin L (P07711 114-333): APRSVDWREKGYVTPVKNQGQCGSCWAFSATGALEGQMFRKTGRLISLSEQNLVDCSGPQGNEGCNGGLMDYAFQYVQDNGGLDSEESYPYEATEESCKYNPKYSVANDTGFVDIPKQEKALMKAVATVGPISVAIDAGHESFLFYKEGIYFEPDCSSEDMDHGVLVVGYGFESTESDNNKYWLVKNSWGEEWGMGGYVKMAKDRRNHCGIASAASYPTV

Compound	side effects in treated animals (BALB/c mice; long or short-term period)	side effects in treated mice (BALB/c mice; long-term studies)	side effects / inhibitor toxicity in treated mice (BALB/c mice; mouse, in vivo)	% inhibition (Cathepsin L; inhibitor 3 X 10^-10 M, 0.0003 µM)	% inhibition (T. solium (cysteine); inhibitor 3 X 10^-10 M) [%]	inhibition with the 1.4% cocktail ([1]; vehicle 8X10^-6 M)	inhibition with the final cocktail (7.4%) ([1]; vehicle 8X10^-6 M) [%]	Ki of vehicle [1]	% inhibition (T. solium (cysteine); vehicle 4 X 10^-5 M) [%]	V Value ([1]; V = P * M, P inhibition with first (1.4%) cocktail, M with last (7.4%) cocktail, vehicle 8X10^-6 M, each cocktail substrate 1X10^-6 M)	% inhibition (Cathepsin L; vehicle 4 X 10^-5 M) [%]	% inhibition (Cathepsin L; vehicle 4 X 10^-5 M, 40 µM)
CC(C)C[C@H](NC(=O)OCc1ccccc1)C(=O)N[C@@H](CC(C)C)C(=O)N[C@@H](Cc1ccc(O)cc1)C(=O)CF [Z-LLY-FMK, Z-Leu-Leu-Tyr-FMK] (Cbz-Leu-Leu-Tyr-CH2F)	only negligible side effects	no side effects	no mice showed effects of inhibitor toxicity	did not inhibit cathepsin L at all	62	–	–	–	–	–	–	–
CC(C)C[C@H](NC(=O)OCc1ccccc1)C(=O)N[C@@H](CC(C)C)C(=O)N[C@@H](CC(C)C)C(=O)Nc1ccc2c(C(F)(F)F)cc(=O)oc2c1 [Z-LLL-AFC, Z-Leu-Leu-Leu-AFC] (Cbz-Leu-Leu-Leu-{AFC})	–	–	–	–	–	greater than 20%	≥ 50	low Ki value	68	–	–	–
Mu-Leu-Tyr-AFC [Mu-LY-AFC]	–	–	–	–	–	–	≥ 50	low Ki value	75	0.450	25	subtle inhibition
CC(C)C[C@H](NC(=O)OCc1ccccc1)C(=O)N[C@@H](CC(C)C)C(=O)N[C@@H](Cc1ccc(O)cc1)C(=O)Nc1ccc2c(C(F)(F)F)cc(=O)oc2c1 [Z-LLY-AFC, Z-Leu-Leu-Tyr-AFC] (Cbz-Leu-Leu-Tyr-{AFC})	–	–	–	–	–	greater than 20%	≥ 50	low Ki value	70	–	–	–
